In general, inhibition refers to how much of the control response was suppressed.

Series [1] concerns U-937. Nature of the series: Cytotoxicity against human U-937 cells assessed as cell viability at 0.01 uM measured after 72 hrs. In kind it is cell-based. The conditions noted are these: u-937, 72 h.
The target of series [2] is T1, Nuclear factor NF-kappa-B complex (Homo sapiens) (UniProt Q00653+P19838+Q04206). The experiment in a line: Inhibition of NF-kappaB in human U-937 cells assessed as reduction in LPS-induced p65 expression at 0.01 uM treated followed by 3 hrs LPS stimulation by Western blot analysis. Type of series: cell-based. On the technique in general: A western blot detects proteins with antibodies after separation by electrophoresis.

Series [3] concerns U-937. The experiment in a line: Anti-inflammatory activity in human U-937 cells assessed as reduction in LPS-induced ROS production at 0.01 uM followed by LPS stimulation and measured after 24 hrs relative to control. Type of series: functional, cell-based.
The target of series [4] is T1, Nuclear factor NF-kappa-B complex (Homo sapiens). The experiment in a line: Inhibition of NF-kappaB activation in human U-937 cells assessed as reduction in LPS-induced ACLY activity after 48 hrs. Type of series: cell-based.
Series [5] has the same target. Nature of the series: Inhibition of NF-kappaB activation in human U-937 cells assessed as reduction in LPS-induced PGE2 production after 48 hrs. In kind it is cell-based.
Series [6] relates to U-937. The experiment in a line: Anti-inflammatory activity in human U-937 cells assessed as reduction in LPS-induced NO production at 0.01 uM followed by LPS stimulation and measured after 24 hrs relative to control. In kind it is functional, cell-based.
The target in series [7] is T1, Nuclear factor NF-kappa-B complex (Homo sapiens). Nature of the series: Inhibition of NF-kappaB in human U-937 cells assessed as reduction in translocation of p65 NF-kappaB in from cytosol to nucleus at 0.01 uM treated followed by 3 hrs LPS stimulation hrs by immunohistochemical staining/confocal microscopy. Type of series: cell-based.
Series [8] has the same target. Nature of the series: Inhibition of NF-kappaB in human U-937 cells assessed as reduction in translocation of p65 NF-kappaB in from cytosol to nucleus at 0.01 uM treated followed by 3 hrs LPS stimulation by Western blot analysis. Type of series: cell-based.

The source made the active and inactive calls. No cut-off for these calls is given here.

T1 sequence (P19838 whole entry, looked up): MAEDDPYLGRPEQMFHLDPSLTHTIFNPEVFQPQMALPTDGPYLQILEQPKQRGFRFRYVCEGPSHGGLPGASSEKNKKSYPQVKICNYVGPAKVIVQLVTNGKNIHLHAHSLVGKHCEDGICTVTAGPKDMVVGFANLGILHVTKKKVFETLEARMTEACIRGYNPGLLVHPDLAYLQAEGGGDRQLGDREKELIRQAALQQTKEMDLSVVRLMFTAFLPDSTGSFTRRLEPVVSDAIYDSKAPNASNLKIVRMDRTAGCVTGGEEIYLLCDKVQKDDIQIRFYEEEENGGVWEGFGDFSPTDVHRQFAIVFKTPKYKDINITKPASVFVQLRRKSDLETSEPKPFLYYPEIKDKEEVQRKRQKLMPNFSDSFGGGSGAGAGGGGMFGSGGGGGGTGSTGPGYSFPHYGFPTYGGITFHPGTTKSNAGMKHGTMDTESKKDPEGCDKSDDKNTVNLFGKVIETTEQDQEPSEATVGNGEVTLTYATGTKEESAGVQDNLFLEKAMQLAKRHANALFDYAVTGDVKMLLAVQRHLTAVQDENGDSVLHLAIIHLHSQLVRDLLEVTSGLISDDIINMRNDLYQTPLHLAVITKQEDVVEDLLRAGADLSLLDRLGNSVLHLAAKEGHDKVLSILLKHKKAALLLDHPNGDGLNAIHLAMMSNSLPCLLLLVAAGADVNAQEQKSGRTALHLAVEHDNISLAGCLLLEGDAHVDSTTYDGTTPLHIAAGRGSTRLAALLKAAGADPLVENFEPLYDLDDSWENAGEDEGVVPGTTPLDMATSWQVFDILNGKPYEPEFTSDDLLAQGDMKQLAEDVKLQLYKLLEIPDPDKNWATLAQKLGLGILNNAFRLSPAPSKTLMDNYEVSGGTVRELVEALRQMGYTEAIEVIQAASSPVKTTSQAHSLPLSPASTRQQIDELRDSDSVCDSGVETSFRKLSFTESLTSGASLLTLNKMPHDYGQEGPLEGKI
T1 sequence (Q00653 whole entry, looked up): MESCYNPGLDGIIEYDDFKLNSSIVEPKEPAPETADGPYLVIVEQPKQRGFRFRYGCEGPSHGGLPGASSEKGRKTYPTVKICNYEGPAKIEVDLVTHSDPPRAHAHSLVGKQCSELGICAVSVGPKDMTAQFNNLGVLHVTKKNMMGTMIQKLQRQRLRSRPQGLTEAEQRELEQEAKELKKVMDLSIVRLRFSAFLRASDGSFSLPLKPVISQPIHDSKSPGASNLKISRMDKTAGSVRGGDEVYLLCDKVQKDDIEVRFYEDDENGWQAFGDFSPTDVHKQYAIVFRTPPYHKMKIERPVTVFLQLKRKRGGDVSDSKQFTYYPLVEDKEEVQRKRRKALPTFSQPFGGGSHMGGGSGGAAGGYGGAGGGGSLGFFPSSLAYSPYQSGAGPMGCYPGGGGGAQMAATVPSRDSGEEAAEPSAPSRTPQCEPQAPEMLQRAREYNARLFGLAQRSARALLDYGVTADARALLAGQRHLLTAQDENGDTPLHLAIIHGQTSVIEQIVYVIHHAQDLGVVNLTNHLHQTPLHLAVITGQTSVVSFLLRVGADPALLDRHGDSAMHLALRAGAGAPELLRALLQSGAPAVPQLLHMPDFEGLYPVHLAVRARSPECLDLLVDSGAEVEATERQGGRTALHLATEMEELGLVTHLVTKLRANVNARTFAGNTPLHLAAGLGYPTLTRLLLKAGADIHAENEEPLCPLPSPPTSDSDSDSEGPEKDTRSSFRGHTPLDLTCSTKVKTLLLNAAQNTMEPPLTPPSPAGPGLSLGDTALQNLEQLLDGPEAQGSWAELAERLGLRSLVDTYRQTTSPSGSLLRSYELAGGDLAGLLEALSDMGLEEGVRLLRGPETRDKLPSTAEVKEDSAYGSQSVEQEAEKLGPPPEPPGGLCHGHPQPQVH
T1 sequence (Q04206 whole entry, looked up): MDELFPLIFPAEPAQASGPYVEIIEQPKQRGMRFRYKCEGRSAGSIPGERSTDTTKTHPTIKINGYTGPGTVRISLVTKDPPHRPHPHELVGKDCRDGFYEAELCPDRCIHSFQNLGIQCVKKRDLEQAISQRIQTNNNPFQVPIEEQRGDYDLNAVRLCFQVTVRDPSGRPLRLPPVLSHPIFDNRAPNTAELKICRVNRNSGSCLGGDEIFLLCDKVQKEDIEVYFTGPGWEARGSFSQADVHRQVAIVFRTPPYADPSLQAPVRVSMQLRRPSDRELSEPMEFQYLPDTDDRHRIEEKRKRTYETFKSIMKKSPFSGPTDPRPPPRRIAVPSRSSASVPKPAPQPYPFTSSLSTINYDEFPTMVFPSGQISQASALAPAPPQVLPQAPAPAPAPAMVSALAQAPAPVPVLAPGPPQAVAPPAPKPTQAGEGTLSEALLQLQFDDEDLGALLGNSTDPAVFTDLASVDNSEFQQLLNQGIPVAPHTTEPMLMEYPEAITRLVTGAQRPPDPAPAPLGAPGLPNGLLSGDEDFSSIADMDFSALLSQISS

As to `COC1(c2ccc(Br)cc2)c2ccccc2OC1c1ccccc1` (mixture of isomers), the Activity result in the series on U-937 [1] is given as “Toxic”. In addition, the “Inhibition of LPS-induced p65 expression” value in series [2] is “Active”.
As to `COc1ccc2c(c1)C(c1ccccc1)C(c1ccccc1)O2` (racemic), the outcome in the series with U-937 [3] and in the series with U-937 [6] was Active. Moreover, in series [4] (concentration not given here), the inhibition amounted to 32%. Besides, the inhibition entry in series [5], in series [7] and in series [8] was “Active” each time. Further, the “Inhibition of LPS-induced p65 expression” value in series [2] is “Active”.
`COc1ccc2c(c1)[C@@H](c1ccc(Br)cc1)[C@@H](c1ccccc1)O2`: in the series on U-937 [1], the Activity entry was “Non-Toxic”. Besides, the outcome in the series with U-937 [3] and with U-937 [6] was Active. Further, the “Inhibition of LPS-induced p65 expression” value in series [2] is “Active”. Besides, the inhibition result in series [7] and in series [8] was “Active” each time.
For the compound `COc1ccc2c(c1)[C@@H](c1ccccc1)[C@H](c1ccccc1)O2` [listing 1 of 2 here], the outcome in the series with U-937 [3] and in the series on U-937 [6] was Active. For the same compound, the inhibition entry in series [4], in series [5], in series [7] and in series [8] was “Active” throughout.
In the case of `COc1ccc2c(c1)[C@@H](c1ccccc1)[C@H](c1ccccc1)O2` [listing 2 of 2 here], the Activity result with U-937 [1] is “Non-Toxic”.
With `COc1ccc2c(c1)[C@@H](c1ccccc1)[C@H](c1ccccc1)O2` (mixture of isomers), the outcome in the series with U-937 [3] and in the series with U-937 [6] was Active. Further, the inhibition in series [4] (concentration not given here) is 43%; in series [5] (concentration not given here) it was 28%. Also, the “Inhibition of LPS-induced p65 expression” value in series [2] is “Active”. Moreover, the inhibition result in series [7] and in series [8] was “Active” throughout.
For `COc1ccc2c(c1)[C@@H](c1ccc(Br)cc1)[C@H](c1ccccc1)O2`, the Activity result with U-937 [1] is listed as “Non-Toxic”. Further, the result in the series on U-937 [3] and with U-937 [6] was Active. In addition, the “Inhibition of LPS-induced p65 expression” value in series [2] is “Active”. Moreover, the inhibition result in series [7] and in series [8] was “Active” each time.
Consider `COc1ccc2c(c1)[C@@H](c1ccccc1)[C@H](c1ccccc1)O2` (single isomer, unassigned), for which the “Inhibition of LPS-induced p65 expression” value in series [2] was “Active”. Also, the inhibition result in series [7] and in series [8] was “Active” in each case.
`CO[C@@]1(c2ccccc2)c2ccccc2O[C@H]1c1ccccc1`: in the series on U-937 [1], the Activity entry is “Non-Toxic”. In addition, the result in the series on U-937 [3] and with U-937 [6] was Active. The “Inhibition of LPS-induced p65 expression” value in series [2] is “Active”. The inhibition entry in series [7] and in series [8] was “Active” each time.
For the compound `COc1ccc2c(c1)C(c1cc(Br)cc(Br)c1)C(c1ccccc1)O2` (stereo not given), in the series with U-937 [1], the Activity entry is recorded as “Non-Toxic”.
